Results: the NIST ThermoML archive (doi:10.1016/j.jct.2017.02.025)
± gives the expanded uncertainty stated by the source.

Experiments:
[1] = Molar enthalpy of transition or fusion; conditions: Crystal; DSC
[2] = Crystal; DTA

Molar enthalpy of transition or fusion [1]: 25.9 ± 0.598 kcal/mol
Normal melting temperature [2]: 82.8 ± 1.1 °C
SMILES: CCCCCCCCCCCCCCCCCCCCCCCCCCCCO [1-octacosanol]
